Where “and” joins values, the source holds several entries; their conditions need not be identical. Equal values may be shown once. Inconclusive results and toxic doses are left out.
Tested on: L1210 leukemia ip in BDF1 mice, survival T/C
Experiment: NCI In Vivo Anticancer Drug Screen. Data for tumor model L1210 Leukemia (intraperitoneal) in B6D2F1 (BDF1) mice
Details: endpoint: mean survival time, higher = longer survival
How it was run: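 Tumor cells were implanted, animals were treated, and survival was followed. The result divides the treated measurement by the vehicle-control measurement.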

[1] = dose: 100.0 mg/kg/injection, schedule: Q01DX001 (ip), vehicle: carboxymethylcellulose (CMC)
[2] = dose: 100.0 mg/kg/injection, schedule: Q01DX009 (ip), vehicle: Klucel (hydroxypropylcellulose) (HPC)
[3] = dose: 100.0 mg/kg/injection, schedule: Q04DX003 (ip), vehicle: Klucel (hydroxypropylcellulose) (HPC)
[4] = dose: 200.0 mg/kg/injection, schedule: Q04DX003 (ip), vehicle: Klucel (hydroxypropylcellulose) (HPC)
[5] = dose: 200.0 mg/kg/injection, schedule: Q01DX001 (ip), vehicle: carboxymethylcellulose (CMC)
[6] = dose: 400.0 mg/kg/injection, schedule: Q01DX001 (ip), vehicle: carboxymethylcellulose (CMC)
[7] = dose: 100.0 mg/kg/injection, schedule: Q01DX009 (ip), vehicle: saline with Tween-80
[8] = dose: 200.0 mg/kg/injection, schedule: Q01DX009 (ip), vehicle: saline with Tween-80
[9] = dose: 200.0 mg/kg/injection, schedule: Q01DX009 (ip), vehicle: Klucel (hydroxypropylcellulose) (HPC)
[10] = dose: 400.0 mg/kg/injection, schedule: Q01DX009 (ip), vehicle: Klucel (hydroxypropylcellulose) (HPC)
[11] = dose: 400.0 mg/kg/injection, schedule: Q01DX009 (ip), vehicle: saline with Tween-80
[12] = dose: 100.0 mg/kg/injection, schedule: Q01DX009 (ip), vehicle: saline
[13] = dose: 100.0 mg/kg/injection, schedule: Q04DX003 (ip), vehicle: saline
[14] = dose: 200.0 mg/kg/injection, schedule: Q01DX009 (ip), vehicle: saline
[15] = dose: 200.0 mg/kg/injection, schedule: Q04DX003 (ip), vehicle: saline
[16] = dose: 400.0 mg/kg/injection, schedule: Q01DX009 (ip), vehicle: saline
[17] = dose: 400.0 mg/kg/injection, schedule: Q04DX003 (ip), vehicle: saline

CCN=C(NCC)Nc1ccc(NC(=O)c2ccc(C(=O)Nc3ccc(NC(=NCC)NCC)cc3)cc2)cc1
T/C (dose: 1.87 mg/kg/injection, schedule: Q01DX Z (ip), vehicle: water): 93 % of control | T/C (dose: 3.75 mg/kg/injection, schedule: Q01DX Z (ip), vehicle: water): 97 % of control | T/C (dose: 7.5 mg/kg/injection, schedule: Q01DX Z (ip), vehicle: water): 109 % of control | T/C (dose: 8.0 mg/kg/injection, schedule: Q01DX009 (ip), vehicle: carboxymethylcellulose (CMC)): 156 % of control | T/C (dose: 16.0 mg/kg/injection, schedule: Q01DX009 (ip), vehicle: carboxymethylcellulose (CMC)): 167 % of control | T/C (dose: 20.0 mg/kg/injection, schedule: Q01DX001 (ip), vehicle: carboxymethylcellulose (CMC)): 103 % of control | T/C (dose: 21.0 mg/kg/injection, schedule: Q01DX001 (ip), vehicle: other): 103 % of control | T/C (dose: 31.0 mg/kg/injection, schedule: Q01DX001 (ip), vehicle: other): 105 % of control | T/C (dose: 33.0 mg/kg/injection, schedule: Q01DX009 (ip), vehicle: other): 190 % of control | T/C (dose: 40.0 mg/kg/injection, schedule: Q01DX001 (ip), vehicle: carboxymethylcellulose (CMC)): 104 % of control | T/C (dose: 47.0 mg/kg/injection, schedule: Q01DX001 (ip), vehicle: other): 116 % of control | T/C (dose: 50.0 mg/kg/injection, schedule: Q01DX009 (ip), vehicle: other): 181 % of control | T/C (dose: 70.0 mg/kg/injection, schedule: Q01DX001 (ip), vehicle: other): 114 % of control | T/C (dose: 75.0 mg/kg/injection, schedule: Q01DX001 (ip), vehicle: other): 118 % of control | T/C (dose: 75.0 mg/kg/injection, schedule: Q01DX009 (ip), vehicle: other): 107 % of control | T/C (dose: 80.0 mg/kg/injection, schedule: Q01DX001 (ip), vehicle: carboxymethylcellulose (CMC)): 119 % of control | T/C [1]: 121 % of control | T/C (dose: 106.0 mg/kg/injection, schedule: Q01DX001 (ip), vehicle: other): 114 % of control | T/C (dose: 150.0 mg/kg/injection, schedule: Q01DX001 (ip), vehicle: other): 153 % of control | T/C (dose: 160.0 mg/kg/injection, schedule: Q01DX001 (ip), vehicle: carboxymethylcellulose (CMC)): 167 % of control and 196 % of control | T/C (dose: 160.0 mg/kg/injection, schedule: Q01DX001 (ip), vehicle: other): 112 % of control | T/C (dose: 240.0 mg/kg/injection, schedule: Q01DX001 (ip), vehicle: other): 227 % of control | T/C (dose: 300.0 mg/kg/injection, schedule: Q01DX001 (ip), vehicle: other): 212 % of control

CCC(C)NCCNCCNC(C)CC (stereo not drawn)
T/C (dose: 6.25 mg/kg/injection, schedule: Q01DX009 (ip), vehicle: saline): 101 % of control | T/C (dose: 6.25 mg/kg/injection, schedule: Q04DX003 (ip), vehicle: Klucel (hydroxypropylcellulose) (HPC)): 102 % of control | T/C (dose: 12.5 mg/kg/injection, schedule: Q01DX009 (ip), vehicle: saline): 108 % of control | T/C (dose: 12.5 mg/kg/injection, schedule: Q04DX003 (ip), vehicle: Klucel (hydroxypropylcellulose) (HPC)): 102 % of control | T/C (dose: 25.0 mg/kg/injection, schedule: Q01DX009 (ip), vehicle: saline): 90 % of control | T/C (dose: 25.0 mg/kg/injection, schedule: Q04DX003 (ip), vehicle: Klucel (hydroxypropylcellulose) (HPC)): 109 % of control

CC1(C)C(=NNc2ccccc2)C(C)(C)C1=NNc1ccccc1
T/C (dose: 25.0 mg/kg/injection, schedule: Q01DX009 (ip), vehicle: Klucel (hydroxypropylcellulose) (HPC)): 93 % of control | T/C [2]: 93 % of control and 88 % of control | T/C [3]: 97 % of control | T/C [4]: 96 % of control | T/C (dose: 400.0 mg/kg/injection, schedule: Q04DX003 (ip), vehicle: Klucel (hydroxypropylcellulose) (HPC)): 97 % of control

O=[N+]([O-])c1cc2c(cc1Br)-c1ccccc1/C2=N\O
T/C [1]: 103 % of control | T/C [5]: 101 % of control | T/C [6]: 97 % of control

CCC(C)(C)C(=O)O
T/C (dose: 50.0 mg/kg/injection, schedule: Q01DX009 (ip), vehicle: saline with Tween-80): 104 % of control | T/C [7]: 98 % of control | T/C [8]: 98 % of control

Cc1ccc(NC(=S)/C(=C(/[O-])c2ccc([N+](=O)[O-])cc2)[n+]2ccccc2)c(C)c1
T/C [2]: 101 % of control | T/C [9]: 97 % of control | T/C [10]: 95 % of control

O=[N+]([O-])c1ccccc1Nc1ccccc1
T/C [1]: 91 % of control | T/C [5]: 89 % of control | T/C [6]: 91 % of control

Nc1nc(-c2ccccc2N=NN2CCN(N=Nc3ccccc3-c3nc(N)c4ccccc4n3)CC2)nc2ccccc12
T/C [3]: 101 % of control | T/C [4]: 96 % of control

NC(N)=N/N=C/c1ccccc1S(=O)(=O)O
T/C (dose: 15.0 mg/kg/injection, schedule: Q01DX Z (ip), vehicle: saline): 92 % of control | T/C (dose: 30.0 mg/kg/injection, schedule: Q01DX Z (ip), vehicle: saline): 95 % of control | T/C (dose: 60.0 mg/kg/injection, schedule: Q01DX Z (ip), vehicle: saline): 94 % of control | T/C (dose: 60.0 mg/kg/injection, schedule: Q01DX Z (oral), vehicle: other): 98 % of control | T/C (dose: 120.0 mg/kg/injection, schedule: Q01DX Z (ip), vehicle: saline): 86 % of control | T/C (dose: 120.0 mg/kg/injection, schedule: Q01DX Z (oral), vehicle: other): 101 % of control | T/C (dose: 240.0 mg/kg/injection, schedule: Q01DX Z (oral), vehicle: other): 97 % of control | T/C (dose: 480.0 mg/kg/injection, schedule: Q01DX Z (oral), vehicle: other): 98 % of control

O=C(O)c1cccnc1.[Cu+2]
T/C (dose: 9.5 mg/kg/injection, schedule: Q01DX001 (ip), vehicle: other): 97 % of control | T/C (dose: 19.0 mg/kg/injection, schedule: Q01DX001 (ip), vehicle: other): 97 % of control | T/C (dose: 38.0 mg/kg/injection, schedule: Q01DX001 (ip), vehicle: other): 100 % of control

C/C(=C\COc1ccc2ccc(=O)oc2c1)C1=CC(=O)C(C)(C)O1
T/C [7]: 96 % of control | T/C (dose: 100.0 mg/kg/injection, schedule: Q04DX003 (ip), vehicle: saline with Tween-80): 96 % of control | T/C [8]: 94 % of control | T/C (dose: 200.0 mg/kg/injection, schedule: Q04DX003 (ip), vehicle: saline with Tween-80): 91 % of control | T/C [11]: 97 % of control | T/C (dose: 400.0 mg/kg/injection, schedule: Q04DX003 (ip), vehicle: saline with Tween-80): 94 % of control

COC(=O)c1ccc(N=Nc2ncc(CCNC(=O)C(F)(F)F)[nH]2)cc1
T/C (dose: 100.0 mg/kg/injection, schedule: Q01DX001 (ip), vehicle: saline with Tween-80): 97 % of control | T/C (dose: 200.0 mg/kg/injection, schedule: Q01DX001 (ip), vehicle: saline with Tween-80): 96 % of control | T/C (dose: 400.0 mg/kg/injection, schedule: Q01DX001 (ip), vehicle: saline with Tween-80): 111 % of control

C[n+]1cccc2cccc(O)c21
T/C (dose: 100.0 mg/kg/injection, schedule: Q04DX002 (ip), vehicle: Klucel (hydroxypropylcellulose) (HPC)): 115 % of control

COc1ccc(NC(=O)Oc2ccc(F)cc2)c(OC)c1
T/C [2]: 89 % of control | T/C [9]: 101 % of control | T/C [10]: 94 % of control

O=C(O)Cc1cccnc1
T/C [12]: 102 % of control | T/C [13]: 101 % of control | T/C [14]: 100 % of control | T/C [15]: 104 % of control | T/C [16]: 89 % of control | T/C [17]: 95 % of control

O=[P+](O)c1ccccc1
T/C [12]: 94 % of control | T/C [13]: 103 % of control | T/C [14]: 100 % of control | T/C [15]: 98 % of control | T/C [16]: 100 % of control | T/C [17]: 101 % of control

O=[N+]([O-])c1ccc(N/N=C/c2cccc(CO)c2)c([N+](=O)[O-])c1
T/C [7]: 98 % of control | T/C [8]: 95 % of control | T/C [11]: 100 % of control

Clc1ccccc1/C=N/Nc1c2ccccc2nc2ccccc12
T/C (dose: 400.0 mg/kg/injection, schedule: Q01DX001 (ip), vehicle: saline): 87 % of control

From PubChem BioAssay AID248 (DTP/NCI, 2004)
